Laboratory results as given in the NIST ThermoML archive (doi:10.1021/je100765j).

Test: refractive index (Na D-line) (dimensionless); xn = mol fraction of the nth substance listed
Details: 101 kPa, Liquid, Standard Abbe refractometry

CCCCCl [1-chlorobutane] + CC(C)OC(C)C
refractive index
Details | 283.15 K | 288.15 K | 293.15 K | 298.15 K | 303.15 K | 308.15 K | 313.15 K
x1 = 0.0466 | 1.37486 | 1.37213 | 1.36941 | 1.36656 | 1.36373 | 1.36088 | 1.35801
x1 = 0.0991 | 1.37637 | 1.37364 | 1.37092 | 1.36807 | 1.36525 | 1.3624 | 1.35953
x1 = 0.1918 | 1.37915 | 1.37643 | 1.37372 | 1.3709 | 1.36808 | 1.36524 | 1.3624
x1 = 0.32 | 1.38331 | 1.38059 | 1.37788 | 1.37509 | 1.37227 | 1.36944 | 1.36662
x1 = 0.4199 | 1.38643 | 1.38374 | 1.38104 | 1.37827 | 1.37544 | 1.37262 | 1.36983
x1 = 0.516 | 1.38968 | 1.38698 | 1.38428 | 1.38153 | 1.37872 | 1.37592 | 1.37315
x1 = 0.623 | 1.39338 | 1.39068 | 1.38799 | 1.38527 | 1.38246 | 1.37967 | 1.37693
x1 = 0.7154 | 1.39669 | 1.39399 | 1.3913 | 1.38859 | 1.3858 | 1.38301 | 1.38028
x1 = 0.8157 | 1.40037 | 1.39768 | 1.39499 | 1.39231 | 1.38954 | 1.38677 | 1.38407
x1 = 0.9098 | 1.40395 | 1.40125 | 1.39856 | 1.39594 | 1.39315 | 1.3904 | 1.38773
x1 = 0.9559 | 1.40572 | 1.40303 | 1.40034 | 1.3977 | 1.39493 | 1.39216 | 1.38952

CC(C)CCl [1-chloro-2-methylpropane] + CC(C)OC(C)C
refractive index
Details | 283.15 K | 288.15 K | 293.15 K | 298.15 K | 303.15 K | 308.15 K | 313.15 K
x1 = 0.0549 | 1.37495 | 1.37221 | 1.36949 | 1.36663 | 1.36379 | 1.36095 | 1.35806
x1 = 0.091 | 1.3759 | 1.37316 | 1.37043 | 1.36757 | 1.36474 | 1.36188 | 1.359
x1 = 0.1977 | 1.37869 | 1.37595 | 1.37322 | 1.37038 | 1.36754 | 1.36469 | 1.36182
x1 = 0.2934 | 1.38128 | 1.37855 | 1.37581 | 1.37298 | 1.37015 | 1.3673 | 1.36444
x1 = 0.3911 | 1.38404 | 1.38131 | 1.37857 | 1.37575 | 1.37292 | 1.37008 | 1.36723
x1 = 0.5137 | 1.38762 | 1.38488 | 1.38213 | 1.37932 | 1.37649 | 1.37365 | 1.37081
x1 = 0.6034 | 1.39034 | 1.3876 | 1.38484 | 1.38205 | 1.37922 | 1.37638 | 1.37354
x1 = 0.6769 | 1.39263 | 1.38989 | 1.38713 | 1.38435 | 1.38152 | 1.37868 | 1.37585
x1 = 0.8059 | 1.3968 | 1.39405 | 1.39129 | 1.38852 | 1.38568 | 1.38285 | 1.38003
x1 = 0.9111 | 1.40038 | 1.39764 | 1.39487 | 1.39212 | 1.38928 | 1.38645 | 1.38364
x1 = 0.9646 | 1.40226 | 1.39951 | 1.39674 | 1.394 | 1.39116 | 1.38833 | 1.38553
